In patent US20250213627A1, “RECOMBINANT MICROORGANISM-BASED METHODS AND COMPOSITIONS FOR TREATMENT OF DISEASE” (Baylor College of Medicine, priority 2021, published 2025):
Ends that are not written are not given here.

Tests used:
rats = test: Side effects of KCa1.1 blockers (urine spots, tremor measurements); type: in vivo, rat; conditions: single injection
Protocol: (§1) FIGS. 12A-12E. Blocking KCa1.1 reduces the severity of an animal model of RA. FIG. 12A. Effects of vehicle (□), paxilline (▪, 20 mg/kg), and iberiotoxin (IbTX, ▪, 0.5 mg/kg) in rats with PIA. Injections were given intraperitoneally (paxilline) or subcutaneously (IbTX), every other day, starting at onset of clinical signs. N=18 rats per group. FIG. 12B. Ex vivo invasiveness of FLS isolated from healthy rats or arthritic rats, treated with vehicle or IbTX. N=5 rats per group. FIG. 12C. Representative images from the joints of arthritic rats, treated with vehicle or IbTX, and stained with Safranin O-fast green (red: cartilage & bone marrow; blue: bone). FIG. 12D. Number of urine spots after rats received a single injection of vehicle, paxilline, or IbTX and were gavaged with 1 ml drinking water. N=6 rats per group. FIG. 12E. Representative tremor measurements in rats 10 min after the injection of vehicle, paxilline, or IbTX. *p<0.05, **p<0.01, ***p<0.001.
(§2) The inventors have tested the efficacy and safety of two KCa1.1 blockers, the small molecule paxilline that blocks KCa1.1 regardless of β subunit and the peptide IbTX that blocks only some αβ combinations of KCa1.1.

rat model of RA (PIA) = test: Pristane-induced arthritis (PIA) model treated with KCa1.1 blockers; type: in vivo; conditions: paxilline 20 mg/kg i.p., IbTX 0.5 mg/kg s.c., every other day from onset
Protocol: as §1, §2

[1] = Detection of functional IbTX in the circulation of rats by patch-clamp; type: in vivo, rat; conditions: enteric-coated capsule
Protocol: CIA is induced in both male and female Lewis rats by their immunization twice at a week interval with porcine collagen II in emulsion with incomplete Freund's adjuvant. Rats are monitored for clinical signs of arthritis and receive an oral bolus of [1×10^7-1×10^9 CFU] LrIbTX or LrIbTX[R34D], or an enteric-coated capsule containing either 0.1 mg/kg body weight synthetic IbTX, IbTX[R34D] or glycerin on the day after the onset of clinical signs. Age- and sex-matched healthy rats are used for comparison. Blood is collected via the saphenous vein or via terminal cardiac puncture 1 hr, 6 hrs, and 24 hrs after gavage. Whole-cell patch-clamp is used to detect and quantify levels of functional IbTX in the serum of the rats.

rat CIA model of RA = test: CIA model treated with LrIbTX; type: in vivo; conditions: daily treatment for 3 weeks from onset
Text: CIA is induced in male and female Lewis rats as described above and the rats monitored for clinical signs of arthritis. Treatment begins at onset of clinical signs, at which time rats are randomly assigned to the different treatment groups: oral LrIbTX, oral LrIbTX[R34D], injected synthetic IbTX, and injected vehicle. Treatment continues daily for 3 weeks. Rats are scored daily for CIA severity with a score of 2 given for each lightly swollen ankle or wrist, 5 for each severely swollen ankle and wrist, and 1 for each red and swollen small joint for a total of 15 per paw. At the end of the 3 weeks of treatment and scoring, rats are euthanized for collection of blood and hind limbs. Blood is used to prepare serum to detect circulating levels of IbTX. For each rat, the left hind limb is used for micro-CT to detect bone damage followed by sectioning for histology to detect cartilage damage (safranin O/Fast Green stain) and synovium inflammation (hematoxylin and eosin stain). The right hind limb is used for the isolation of FLS to assess their proliferation and invasiveness ex vivo, using the methods described above, without further treatment.

RA-FLS = RA-FLS proliferation and invasion assays; type: cell-based, human; conditions: supernatants or synthetic peptide
Protocol: For proliferation assays, RA-FLS are plated into 96 well plates and incubated for 48 hrs in the presence of media supplemented with either LrIbTX or LrIbTX[R34D] supernatants, known concentrations of synthetic IbTX, or the vehicle for IbTX. [3H] thymidine is added during the last 16-18 hrs of culture and the amount of [3H] thymidine incorporated into the DNA collected with a scintillation counter as a measure of cell division.
For invasion assays, RA-FLS are seeded in the upper compartment of a Matrigel-coated transwell and induced to cross into the lower compartment by the addition of FBS. The upper compartment is supplemented with either LrIbTX or LrIbTX[R34D] supernatants, synthetic IbTX, or the vehicle. The number of cells crossing into the lower compartment are counted as a measure of invasiveness.

CIA = conditions: injected; cited from earlier work
KCa1.1 = KCa1.1 (Homo sapiens, UniProt Q12791); conditions: cited from earlier work
KCa1.1, sequence (Q12791 whole entry, species assumed): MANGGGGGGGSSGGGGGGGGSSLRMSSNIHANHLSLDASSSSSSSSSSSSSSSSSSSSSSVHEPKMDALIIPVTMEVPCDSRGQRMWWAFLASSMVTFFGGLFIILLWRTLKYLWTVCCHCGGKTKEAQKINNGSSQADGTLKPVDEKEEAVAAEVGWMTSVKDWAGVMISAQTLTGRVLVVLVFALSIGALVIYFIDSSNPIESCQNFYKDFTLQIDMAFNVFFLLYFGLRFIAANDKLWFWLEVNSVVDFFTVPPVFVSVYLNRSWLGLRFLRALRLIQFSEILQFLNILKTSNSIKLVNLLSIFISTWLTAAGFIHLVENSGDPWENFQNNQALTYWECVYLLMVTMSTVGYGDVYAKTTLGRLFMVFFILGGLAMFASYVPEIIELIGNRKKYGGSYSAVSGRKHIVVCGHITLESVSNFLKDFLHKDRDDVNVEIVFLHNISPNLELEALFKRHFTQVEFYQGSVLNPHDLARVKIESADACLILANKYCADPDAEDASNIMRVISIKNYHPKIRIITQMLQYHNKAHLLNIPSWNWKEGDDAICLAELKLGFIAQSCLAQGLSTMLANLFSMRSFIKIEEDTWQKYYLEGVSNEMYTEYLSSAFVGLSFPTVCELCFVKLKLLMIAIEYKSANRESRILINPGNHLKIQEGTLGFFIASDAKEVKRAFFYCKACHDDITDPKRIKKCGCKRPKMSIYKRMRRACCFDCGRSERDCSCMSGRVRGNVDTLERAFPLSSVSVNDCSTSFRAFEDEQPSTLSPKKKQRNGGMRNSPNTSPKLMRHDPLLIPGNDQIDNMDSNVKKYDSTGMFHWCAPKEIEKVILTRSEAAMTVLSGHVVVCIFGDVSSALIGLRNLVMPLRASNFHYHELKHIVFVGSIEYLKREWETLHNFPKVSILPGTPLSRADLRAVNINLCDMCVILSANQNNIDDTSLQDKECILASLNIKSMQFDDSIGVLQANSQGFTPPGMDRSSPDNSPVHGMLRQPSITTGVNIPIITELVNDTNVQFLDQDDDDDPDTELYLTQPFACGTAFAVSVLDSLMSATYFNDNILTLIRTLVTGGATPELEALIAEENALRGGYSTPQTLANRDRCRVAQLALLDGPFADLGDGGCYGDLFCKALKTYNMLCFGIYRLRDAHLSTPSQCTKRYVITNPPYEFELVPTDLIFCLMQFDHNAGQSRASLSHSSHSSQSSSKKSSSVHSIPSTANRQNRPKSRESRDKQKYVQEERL

[2] = system: CCR7− TEM cells and CCR7+ naïve/TCM cells; test: [3H]-thymidine incorporation proliferation of T-cell subsets in presence of ShK-186; type: cell-based, human
Protocol: FIGS. 2A-2C. […] FIGS. 2A-2B. Naïve/TCM (▪) and TEM (▪) cells were separated based on CCR7 expression and activated in the presence of ShK-186, either immediately after isolation (FIG. 2A) or after an overnight pre-activation to induce the upregulation of either KV1.3 or KCa3.1 (FIG. 2B). FIG. 2C. TEM cells were activated with 10 (◯), 30 (▪), or 90 (▴) μg/ml antigen in the presence of ShK-186. In all aspects, T-cell proliferation was assessed via [3H] thymidine incorporation into the DNA of the dividing cells. Each data point represents mean±SD of triplicates.
The activation of CCR7^− TEM cells induces the upregulation of the Kv1.3 K^+ channel (FIG. 1)^8,9. In contrast, CCR7^+ naïve and central memory T (TCM) cells upregulate a different K^+ channel (KCa3.1) upon activation^8,9,35. The inventors therefore designed selective Kv1.3 blockers and assessed the sensitivity of the different T-cell subsets to Kv1.3 block. […] Without wishing to be bound by theory, this “escape” by naïve/TCM effectors may be due to up-regulation of the calcium-activated KCa3.1 channel that regulates membrane potential and Ca^2+ signaling in naïve/TCM effectors in place of Kv1.38. The significance of this finding is that in some aspects Kv1.3 blockers have an advantage over current immunotherapies because naïve and long-lived TCM cells (the main memory pool) would escape inhibition while TEM cells would be targeted.

active plaque psoriasis = conditions: doses as low at 30 μg/patient 3 times a week subcutaneously; cited from earlier work
Kv1.3 = Kv1.3 (Mus musculus, UniProt P16390); conditions: literature values; cited from earlier work
Kv1.3, sequence (P16390 whole entry): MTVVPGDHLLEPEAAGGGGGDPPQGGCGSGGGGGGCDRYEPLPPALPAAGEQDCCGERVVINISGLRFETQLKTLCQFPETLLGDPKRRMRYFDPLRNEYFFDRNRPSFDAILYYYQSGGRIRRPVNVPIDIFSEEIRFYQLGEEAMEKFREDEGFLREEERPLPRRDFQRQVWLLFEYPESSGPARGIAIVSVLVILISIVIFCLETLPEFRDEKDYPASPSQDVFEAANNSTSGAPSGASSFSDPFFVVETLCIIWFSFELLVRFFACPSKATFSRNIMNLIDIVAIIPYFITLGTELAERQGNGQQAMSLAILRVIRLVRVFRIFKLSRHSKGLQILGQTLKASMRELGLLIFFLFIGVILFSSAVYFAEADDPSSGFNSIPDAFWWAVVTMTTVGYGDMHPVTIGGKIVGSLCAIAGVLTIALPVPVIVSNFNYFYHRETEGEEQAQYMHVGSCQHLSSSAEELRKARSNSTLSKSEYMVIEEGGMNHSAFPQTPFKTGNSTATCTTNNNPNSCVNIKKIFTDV

[3] = system: rodents, non-human primates, healthy humans, and patients; conditions: systemic administration; Phase 1A and 1B; cited from earlier work
[4] = system: viral or bacterial infections in rats; conditions: rat, in vivo; cited from earlier work
[5] = system: Kv1.3 versus Kv1.1 and other ion channels; conditions: cited from earlier work
[6] = system: rat models of RA and multiple sclerosis; conditions: in vivo; cited from earlier work
[7] = Immunohistochemistry detection of HA tag in spleen after injection; type: in vivo, rat; conditions: subcutaneous injection, spleens collected 3 hours later
Protocol: FIGS. 10A-10B. LrS235-HA secretes functionally active HA-tagged ShK-235. FIG. 10A. Representative whole-cell Kv1.3 currents measured by patch-clamp in cells stably expressing Kv1.3 before (control, top trace) and after application of ShK-235-HA (bottom trace). FIG. 10B. Healthy Lewis rats received a subcutaneous injection of either ShK-235-HA (left) or of untagged ShK-235 (right). Their spleens were collected 3 hours later and stained to detect the HA tag in brown (arrows). Scale bar: 50 μm.
Two complementary approaches to directly detect ShK-235 in joints and tissues and assess its action on T lymphocyte proliferation are used. L. reuteri LJ01 has been engineered to express HA-tagged ShK-235 (LrS235-HA), because the low immunogenicity of the peptide has made it impossible to raise antibodies against ShK-235. […] ShK-235-HA was injected to healthy rats and their spleens collected. […] HA-tagged ShK-235 is used to detect and localize ShK-235 in the joints, intestines, and secondary lymphoid organs of rats with CIA.

[8] = cells activated overnight, rested and re-stimulated

iberiotoxin (QFTDVDCSVSKECWSVCKDLFGVDRGKCMGKKCRCYQ; not fully specified (residue 1, bridges); cysteine pairing not given here; UniProt P24663 1-37, looked up) [IbTX]
Side effects (incontinence, tremors) (rats): No such side effects
Reduction of disease severity (rat model of RA (PIA)): effective in reducing disease severity
Detection of IbTX in the circulation [1]: transiently detected
CIA disease severity (rat CIA model of RA): milder disease
Inhibition of RA-FLS proliferation and invasiveness (RA-FLS): inhibit
Efficacy in CIA (CIA): showed efficacy
IC50 (KCa1.1): 2 nM

ShK derivative, pTyr-AEEA-RSCIDTIPKSRCTAFQCKHSMKYRLSFCRKTCGTC, amidated C-terminus (SEQ ID NO:11) [ShK-186]
Sensitivity of TEM cell proliferation to the Kv1.3 blocker [2, 8]: exquisitely sensitive
Sensitivity of naïve/TCM cell proliferation to the Kv1.3 blocker [2, 8]: resistant
Fold more effective in suppressing [3H]-thymidine incorporation by TEM cells compared with naïve/TCM cells ([2]; cells from patients with type 1 diabetes or RA, activated immediately after isolation): 10 fold
Efficacy (active plaque psoriasis): showed efficacy
Tolerability (active plaque psoriasis): well tolerated
IC50 (Kv1.3): 0.07 nM
Safety profile [3]: excellent safety profile
Effect on clearance of infections [4]: did not prevent the clearance
Selectivity for Kv1.3 over all other ion channels [5]: ≥ 700 fold
Selectivity for Kv1.3 versus the closely-related Kv1.1 channel [5]: 100 fold
Selectivity for Kv1.3 over other channels ([5]; comparator value): 100 fold
Efficacy [6]: demonstrated efficacy

sea anemone Stichodactyla helianthus peptide RSCIDTIPKSRCTAFQCKHSMKYRLSFCRKTCGTC (SEQ ID NO:10) [ShK]
IC50 (Kv1.3): 0.01 nM

CC(C)(O)[C@H]1O[C@H]2CC[C@@]3(C)[C@@](O)(CC[C@H]4Cc5c([nH]c6ccccc56)[C@@]43C)C2=CC1=O [paxilline]
Side effects (incontinence, tremors) (rats): induces incontinence and tremors

IbTX[R34D] (QFTDVDCSVSKECWSVCKDLFGVDRGKCMGKKCDCYQ; ends and bridges not checked; cysteine pairing not given here; UniProt P24663 1-37, looked up, variant R34D)
Block of KCa1.1 channels (KCa1.1; mutant IbTX): does not block KCa1.1 channels

ShK-235-HA: HA-tagged ShK-235 (RSCIDTIPKSRCTAFKCKHSIKYRLSFCRKTCGTCA; ends and bridges not checked; also: HA tag (position not given here))
Detection in spleen sections [7]: detect HA-ShK-235 in spleen sections
